Here are results for nine molecules from ChEMBL document CHEMBL2073963, “Transport of methotrexate (MTX) and folates by multidrug resistance protein (MRP) 3 and MRP1: effect of polyglutamylation on MTX transport” (Cancer Res, 2001).

What all share (format): functional, cell membranes
What all share (design): scale not given: the % may be the effect or the level left

In assay [1] the target is Multidrug resistance associated protein (Homo sapiens) (UniProt Q96QA9). Briefly: TP_TRANSPORTER: inhibition of MTX uptake (MTX: 1 uM, Vincristine: 300 uM) in membrane vesicle from MRP3-expessing HEK 293 cell. Particulars: HEK293.
Chain of Multidrug resistance associated protein (Homo sapiens) (Q96QA9 as listed by the source): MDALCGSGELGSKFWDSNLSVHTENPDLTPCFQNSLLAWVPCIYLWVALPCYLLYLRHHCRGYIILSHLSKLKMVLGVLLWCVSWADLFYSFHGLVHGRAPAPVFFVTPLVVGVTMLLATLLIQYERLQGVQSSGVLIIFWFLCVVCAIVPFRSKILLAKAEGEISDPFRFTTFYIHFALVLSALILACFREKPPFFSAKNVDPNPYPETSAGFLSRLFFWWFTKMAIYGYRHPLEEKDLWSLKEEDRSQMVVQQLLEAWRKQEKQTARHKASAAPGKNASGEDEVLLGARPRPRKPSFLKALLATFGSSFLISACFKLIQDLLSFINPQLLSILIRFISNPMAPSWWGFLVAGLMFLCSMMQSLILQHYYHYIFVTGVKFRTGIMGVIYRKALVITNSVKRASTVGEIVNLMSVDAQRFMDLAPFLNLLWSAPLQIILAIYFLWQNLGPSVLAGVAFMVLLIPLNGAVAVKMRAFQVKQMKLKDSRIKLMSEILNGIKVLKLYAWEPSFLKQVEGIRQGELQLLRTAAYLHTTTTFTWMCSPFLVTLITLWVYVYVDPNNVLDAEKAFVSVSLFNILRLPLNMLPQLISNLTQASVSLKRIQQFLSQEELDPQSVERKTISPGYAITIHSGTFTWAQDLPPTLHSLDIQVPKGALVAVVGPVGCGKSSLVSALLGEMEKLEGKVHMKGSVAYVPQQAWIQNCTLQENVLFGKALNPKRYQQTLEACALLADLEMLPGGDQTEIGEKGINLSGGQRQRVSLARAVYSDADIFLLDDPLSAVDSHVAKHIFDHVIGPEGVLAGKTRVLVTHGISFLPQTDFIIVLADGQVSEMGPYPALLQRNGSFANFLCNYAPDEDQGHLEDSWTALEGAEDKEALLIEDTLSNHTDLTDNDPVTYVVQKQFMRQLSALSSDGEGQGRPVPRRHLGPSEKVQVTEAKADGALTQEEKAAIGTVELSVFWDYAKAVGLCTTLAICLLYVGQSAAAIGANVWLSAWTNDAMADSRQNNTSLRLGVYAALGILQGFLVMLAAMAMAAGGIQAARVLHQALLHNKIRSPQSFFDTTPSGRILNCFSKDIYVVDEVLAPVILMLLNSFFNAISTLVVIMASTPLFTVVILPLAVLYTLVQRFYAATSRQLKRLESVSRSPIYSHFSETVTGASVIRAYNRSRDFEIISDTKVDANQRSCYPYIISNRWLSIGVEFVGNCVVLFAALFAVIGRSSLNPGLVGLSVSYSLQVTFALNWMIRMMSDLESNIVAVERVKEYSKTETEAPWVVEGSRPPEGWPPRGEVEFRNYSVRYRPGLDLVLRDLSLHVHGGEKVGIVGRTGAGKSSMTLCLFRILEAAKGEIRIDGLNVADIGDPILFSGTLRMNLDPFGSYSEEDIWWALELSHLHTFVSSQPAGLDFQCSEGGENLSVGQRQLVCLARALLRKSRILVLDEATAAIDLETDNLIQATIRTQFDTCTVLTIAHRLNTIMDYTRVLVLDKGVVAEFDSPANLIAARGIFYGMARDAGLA
For assay [2] the target is unchanged. Briefly: TP_TRANSPORTER: inhibition of MTX uptake (MTX: 1 uM, PSC-833: 10 uM) in membrane vesicles from MRP3-expressing HEK293 cells. Particulars: Membrane vesicle.
Assay [3] shares this target. Briefly: TP_TRANSPORTER: inhibition of MTX uptake (MTX: 1 uM, GC: 300 uM) in membrane vesicles from MRP3-expressing HEK293 cells. Particulars: Membrane vesicle.
Assay [4] has the same target. Description: TP_TRANSPORTER: inhibition of MTX uptake (MTX: 1 uM, DOX;G: 300 uM) in membrane vesicles from MRP3-expressing HEK293 cells. Particulars: Membrane vesicle.
Assay [5] has the same target. Briefly: TP_TRANSPORTER: inhibition of MTX uptake (MTX: 1 uM, AG-A: 1000 uM) in membrane vesicles from MRP3-expressing HEK293 cells. As to conditions: Membrane vesicle.
Assay [6] has the same target. Description: TP_TRANSPORTER: inhibition of MTX uptake (MTX: 1 uM, MK571: 100 uM) in membrane vesicles from MRP3-expressing HEK293 cells. Particulars: Membrane vesicle.
For assay [7] the target is unchanged. Briefly: TP_TRANSPORTER: inhibition of MTX uptake (MTX: 1 uM, PAK-104P: 100 uM) in membrane vesicles from MRP3-expressing HEK293 cells. As to conditions: Membrane vesicle.
The target is the same in assay [8]. Briefly: TP_TRANSPORTER: inhibition of MTX uptake (MTX: 1 uM, VP-16: 300 uM) in membrane vesicles from MRP3-expressing HEK293 cells. Particulars: Membrane vesicle.
Assay [9] shares this target. Briefly: TP_TRANSPORTER: inhibition of MTX uptake (MTX: 1 uM, E217betaG: 100 uM) in membrane vesicles from MRP3-expressing HEK293 cells. As to conditions: Membrane vesicle.

Consider `CC[C@]1(O)C[C@H]2CN(CCc3c([nH]c4ccccc34)[C@@](C(=O)OC)(c3cc4c(cc3OC)N(C=O)[C@H]3[C@@](O)(C(=O)OC)[C@H](OC(C)=O)[C@]5(CC)C=CCN6CC[C@]43[C@@H]65)C2)C1`, for which the Activity in assay [1] was 39.1%.
With `C/C=C/C[C@@H](C)C(=O)[C@H]1C(=O)N[C@@H](C(C)C)C(=O)N(C)CC(=O)N(C)[C@@H](CC(C)C)C(=O)N[C@@H](C(C)C)C(=O)N(C)[C@@H](CC(C)C)C(=O)N[C@@H](C)C(=O)N[C@H](C)C(=O)N(C)[C@@H](CC(C)C)C(=O)N(C)[C@@H](CC(C)C)C(=O)N(C)[C@@H](C(C)C)C(=O)N1C`, the Activity in assay [2] is 61.4%.
For `C[C@H](CCC(=O)NCC(=O)O)[C@H]1CC[C@H]2[C@@H]3[C@H](O)C[C@@H]4C[C@H](O)CC[C@]4(C)[C@H]3C[C@H](O)[C@]12C`, the Activity in [3] was 10.4%.
On to `COc1cccc2c1C(=O)c1c(O)c3c(c(O)c1C2=O)C[C@@](O)(C(=O)CO)C[C@@H]3O[C@H]1C[C@H](N)[C@H](O)[C@H](C)O1`, for which the Activity in [4] is 80%.
`CC(=O)O[C@@H]1[C@@H]2[C@@H](OC(C)=O)C=C3[C@H]([C@H](O)C[C@]4(C)[C@@H]([C@H](C)[C@H](O)CCC(C)C)CC[C@@H]34)[C@@]2(C)CC[C@@H]1OC(C)=O`: the Activity in [5] was 56.9%.
As to `CN(C)C(=O)CCSC(SCCC(=O)O)c1cccc(/C=C/c2ccc3ccc(Cl)cc3n2)c1` (centres undefined), in assay [6], the Activity is 2.3%.
As for `Cc1nc(C)c(P2(=O)O[C@H](C)C[C@@H](C)O2)c(-c2cccc([N+](=O)[O-])c2)c1C(=O)OCCN1CCN(C(c2ccccc2)c2ccccc2)CC1` (some centres undefined), in [7], the Activity is 3%.
For the molecule `COc1cc([C@@H]2c3cc4c(cc3[C@@H](O[C@@H]3O[C@@H]5CO[C@@H](C)O[C@H]5[C@H](O)[C@H]3O)[C@H]3COC(=O)[C@H]23)OCO4)cc(OC)c1O`, in [8], the Activity is 3.47%.
Regarding `C[C@]12CC[C@@H]3c4ccc(O)cc4CC[C@H]3[C@@H]1CC[C@@H]2O[C@@H]1O[C@H](C(=O)O)[C@@H](O)[C@H](O)[C@H]1O`, the Activity in assay [9] is 8.27%.
